Key:
[1] = tested on: MM.1S Len-resistant cells; experiment: MM.1S lenalidomide-resistant cell viability; assay type: cell-based, Human; settings: 72 hours
From the text: The experiment was repeated twice and JQRA concentration was increased (as indicated) at the second time.

[2] = tested on: MM.1S cells; experiment: Annexin V/PI apoptosis assay in MM.1S cells; assay type: cell-based, Human; settings: 200 nM, 16 hours
Description: (§1) FIGS. 22A to 22F show the mechanisms of WL40-induced MM cell death. […] MM.1S cells were treated with DMSO control or WL40 (200 nM) for 16 hours, and then analyzed for apoptosis using Annexin V/PI double staining assay (mean±SD; n=3; p<0.001). FIG. 22B is an immunoblot of MM.1S and ANBL6.BR cells, which were treated with DMSO control or WL40 (200 nM for MM.1S; 1 μM for ANBL6.BR) for 16 hours; protein lysates were then subjected to the immunoblotting using antibodies against poly ADP ribose polymerase (PARP), caspase-3, caspase-7, caspase-8, caspase-9, or β-actin. FL, full length; CF, cleaved fragment. FIG. 22C is a bar graph measuring enzymatic activity. MM.1S cells were treated with DMSO control or WL40 (200 nM) for 12 hours, followed by the measurement of caspase-3, caspase-8, or caspase-9 enzymatic activity (mean±SD; n=3; p<0.0001). FIG. 22D is an immunoblot of MM.1S and ANBL6.BR cells, which were treated with DMSO control or WL40 (200 nM for MM.1S; 1 μM for ANBL6.BR) for 16 hours; protein lysates were then subjected to the immunoblotting using specific antibodies against Cyclin-B1, Cell Division Cycle 25C (CDC25C), Cell Division Cycle 2 (CDCl2), or β-actin. […]

[3] = tested on: cyclin-B1, CDC25C, and CDCl2; experiment: Cell-cycle regulatory protein immunoblot; assay type: cell-based, Human; settings: MM.1S 200 nM; ANBL6.BR 1 μM; 16 hours
Description: as §1

[4] = tested on: CD138+ patient MM cells; experiment: Viability of CD138+ patient MM cells (CellTiter-Glo); assay type: cell-based; settings: Homo sapiens, CD138+ patient MM cells (patients 1-4), 48 hours, read-out: cell viability IC50 range
Description: (§2) The IC50 of WL40 for cell lines is shown.
Human MM cell lines MM.1S, MM.1R, RPMI-8226, ANBL6.WT, ANBL6.BR, DOX40, INA6, and normal PBMCs were cultured in RPMI1640 complete medium. Informed consent was obtained from ah patients in accordance with the Helsinki protocol. MM CD138-positive cells, bone marrow stromal cells (BMSCs), and plasmacytoid dendritic cells (pDCs) from MM patients were isolated and cultured as described previously.^32

[5] = tested on: MM.1S cells co-cultured with patient BMSCs; experiment: MM.1S co-culture with patient BMSCs (WST); assay type: cell-based, Human; settings: 48 hours
From the text: as §2

[6] = tested on: HCT116 and HCT116-Rpn13KO cell lines; experiment: HCT116 and HCT116-Rpn13KO cell viability; assay type: cell-based; settings: HCT116 versus HCT116-Rpn13KO; 48 hours; Wst-1
Description: FIGS. 8A and 8B show HCT116 and HCT116-Rpn13KO cell lines that were treated with WL40 or WL44 at the indicated concentrations for 48 hours. Wst-1 assay was used to test cell viability.
CRISPR-Cas9 genome editing was performed to generate Rpn13-knockout (Rpn13-KO) HCT116 and MM.1S cell lines. Cells were transfected with Rpn13-CRISPR/Cas9-knockout (KO) plasmid (Santa Cruz Biotechnology, Inc., Santa Cruz, Calif., USA) using Lipofectamine 2000 (Thermo Fisher Scientific, Waltham, Mass., USA) or the cell line Nucleofector Kit V (Amaxa Biosystems, Cologne, Germany), respectively. After 48 h incubation, green fluorescent protein (GFP)-positive cells were sorted. Rpn13 KO was confirmed by both protein expression studies and DNA sequencing.

[7] = tested on: 20S proteasome; experiment: Proteasome activity assay in lysates of treated MM.1S cells; assay type: cell-based, Human; settings: cellular extracts of MM.1S cells treated 1 μM or 10 μM for 3 hours
Description: MM.1S cells, which were treated with DMSO control, bortezomib, or WL40 at indicated concentration for 3 hours; protein lysates were analyzed for different proteasome activities (CT-L, chymotrypsin-like; T-L, trypsin-like; C-L, caspase-like). FIG. 20B is a bar graph showing percent proteasome activity after normalization with DMSO control (mean±SD; n=3). Recombinant 20S proteasome was incubated with DMSO, bortezomib, or WL40 for 30 minutes, followed by assessment of the above-noted proteasome activities. FIG. 20C MM.1S cells were pretreated with exemplary proteasome inhibitor MG132 (10 μM) for 1 hour, followed by addition of WL40 (400 nM) for 8 hours. […] Total protein lysates were subjected to immunoblots for Rpn13 and α-tubulin. […] FIG. 20E ANBL6.BR cells were treated with WL40 (400 nM) or RA190 (500 nM) for 16 hours; protein lysates were subjected to immunoblot analysis using anti-Rpn13 or anti-β-actin Abs.
MM.1S cells were treated with WL40 (1 μM or 10 μM) or Bortezomib (1 μM) for 3 hours; cells were then harvested and lysed in lysis buffer, followed by removal of debris by centrifugation. Total protein (25 μg) was analyzed for proteasome activity using 20S proteasome Assay Kit (Calbiochem), as previously described.^33

Compound | cytotoxicity (percentage of viable cells) [1] | apoptosis (Annexin V/PI) [2] | levels of cell-cycle regulatory proteins [3] | IC50 [4] [nM] | viability of MM cells in co-culture [5] | RPN13 dependence of cytotoxicity [6] | 20S proteasomal activities (chymotrypsin-like, trypsin-like, caspase-like) [7]
Cl.N[C@@H](Cc1ccccc1)C(=O)N1C/C(=C/c2ccc(Cl)c(Cl)c2)C(=O)/C(=C\c2ccc(Cl)c(Cl)c2)C1 [RA190, reference compound] | more robust MM cytotoxicity | – | – | – | – | – | –
O=C1CCC(N2C(=O)c3cccc(NCCOCCOCCOCCC(=O)N[C@@H](Cc4ccccc4)C(=O)N4C/C(=C\c5ccc(Cl)c(Cl)c5)C(=O)/C(=C/c5ccc(Cl)c(Cl)c5)C4)c3C2=O)C(=O)N1 (stereo partly shown) [WL40] | – | increase in early- (Annexin V^+/PI^−) and late-stage (Annexin V^+/PI^+) apoptosis | reduction in the levels of cell-cycle regulatory proteins | 95 to 170 | dose-dependent decrease in the viability of MM cells | RPN13-dependent | does not inhibit 20S proteasomal activities

Source: patent publication US11702402B2, “Small molecules that block proteasome-associated ubiquitin receptor RPN13 function and uses thereof” (DANA-FARBER CANCER INSTITUTE, INC., priority 2018, dated 2023)
